Results from US9809545B2, “Factor XIa inhibitors” (Merck Sharp & Dohme Corp., priority 2013, dated 2017).

Target: purified human Factor XIa (Homo sapiens (Human), UniProt P03951)
Experiment: Factor XIa Assay
Format: biochemical
Details: purified human Factor XIa 40 pM; substrate Z-Gly-Pro-Arg-AFC 100 μM; 50 mM HEPES pH 7.4; read-out: hFXIa Ki

Chain of purified human Factor XIa (P03951 388-625): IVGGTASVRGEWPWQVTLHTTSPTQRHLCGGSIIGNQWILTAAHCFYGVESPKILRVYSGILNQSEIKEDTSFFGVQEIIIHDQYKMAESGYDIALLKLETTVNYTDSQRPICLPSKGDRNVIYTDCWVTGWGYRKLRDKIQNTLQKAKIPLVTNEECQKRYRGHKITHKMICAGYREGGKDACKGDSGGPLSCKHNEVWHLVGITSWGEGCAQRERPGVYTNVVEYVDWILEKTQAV
Chain of purified human Factor XIa (P03951 19-387 partner): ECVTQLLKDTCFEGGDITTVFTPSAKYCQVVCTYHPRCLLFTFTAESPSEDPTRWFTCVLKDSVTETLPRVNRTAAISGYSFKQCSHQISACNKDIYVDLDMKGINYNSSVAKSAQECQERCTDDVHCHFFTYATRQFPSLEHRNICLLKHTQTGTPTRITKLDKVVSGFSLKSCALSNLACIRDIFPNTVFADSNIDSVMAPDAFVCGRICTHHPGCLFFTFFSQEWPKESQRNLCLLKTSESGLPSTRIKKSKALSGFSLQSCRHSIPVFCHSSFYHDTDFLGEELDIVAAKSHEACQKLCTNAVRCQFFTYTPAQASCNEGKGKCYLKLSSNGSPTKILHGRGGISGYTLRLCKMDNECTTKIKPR

Row | Ki [nM] | SMILES
1 | 400 | CCOC(=O)Nc1ccc(NC(=O)C(Cc2ccccc2)n2ccc(-c3cc(Cl)ccc3[N+](=O)[O-])cc2=O)cc1 (centres unmarked) [Example 1Ag, ethyl (4-(2-(4-(5-chloro-2-nitrophenyl)-2-oxopyridin-1(2H)-yl)-3-phenylpropanamido)phenyl)carbamate]
2 | 340 | COC(=O)Nc1ccc(CNC(=O)C(Cc2ccccc2)n2ccc(-c3cc(Cl)ccc3[N+](=O)[O-])cc2=O)cc1 (centres unmarked) [Example 1Al, methyl (4-((2-(4-(5-chloro-2-nitrophenyl)-2-oxopyridin-1(2H)-yl)-3-phenylpropanamido)methyl)phenyl)carbamate]
3 | > 10000 | O=C(C(Cc1ccccc1)n1ccc(-c2cc(Cl)ccc2[N+](=O)[O-])cc1=O)N1CCC(N2CC[C@@H](O)C2)CC1 (stereo partly drawn) [Example 1Aw, 4-(5-chloro-2-nitrophenyl)-1-(1-(4-((R)-3-hydroxypyrrolidin-1-yl)piperidin-1-yl)-1-oxo-3-phenylpropan-2-yl)pyridin-2(1H)-one]
4 | 6 | O=C(O)c1ccc(NC(=O)[C@H](Cc2ccc(F)cc2)n2ccc(-c3cc(Cl)ccc3-n3cnnn3)cc2=O)cc1 [Example 1Ea, (S)-4-(2-(4-(5-chloro-2-(1H-tetrazol-1-yl)phenyl)-2-oxopyridin-1(2H)-yl)-3-(4-fluorophenyl)propanamido)benzoic acid]
5 | < 5 | O=C(O)c1ccc(NC(=O)[C@H](Cc2ccccc2)n2ccc(-c3cc(Cl)ccc3-n3cnnn3)cc2=O)cc1 [Example 1Ef, (S)-4-(2-(4-(5-chloro-2-(1H-tetrazol-1-yl)phenyl)-2-oxopyridin-1(2H)-yl)-3-phenylpropanamido)benzoic acid]
6 | 6 | O=C(O)c1ccc(NC(=O)[C@@H](Cc2ccccc2)n2ccc(-c3cc(Cl)ccc3-n3cnnn3)cc2=O)cc1 [Example 1Ff, (R)-4-(2-(4-(5-chloro-2-(1H-tetrazol-1-yl)phenyl)-2-oxopyridin-1(2H)-yl)-3-phenylpropanamido)benzoic acid]
7 | 7750 | O=C(O)c1ccc(NC(=O)C(Cc2ccccc2)n2ccc(-c3cnccc3Cl)cc2=O)cc1 (centres unmarked) [Example 2Af, 4-(2-(4-chloro-2′-oxo-[3,4′-bipyridin]-1′(2′H)-yl)-3-phenylpropanamido)benzoic acid]
8 | 370 | N=C(N)c1ccc(-c2ccn(C(Cc3ccccc3)C(=O)Nc3ccc(C(=O)O)cc3)c(=O)c2)cc1 (centres unmarked) [Example 2d, 4-(2-(4-(4-carbamimidoylphenyl)-2-oxopyridin-1(2H)-yl)-3-phenylpropanamido)benzoic acid]
9 | < 5 | O=C(O)c1ccc2[nH]c([C@H](Cc3ccc(F)cc3)n3ccc(-c4cc(Cl)ccc4-n4cnnn4)cc3=O)nc2c1 [Example 3Bd, (S)-2-(1-(4-(5-chloro-2-(1H-tetrazol-1-yl)phenyl)-2-oxopyridin-1(2H)-yl)-2-(4-fluorophenyl)ethyl)-1H-benzo[d]imidazole-5-carboxylic acid]
10 | < 5 | O=C(O)c1ccc2[nH]c([C@H](Cc3ccccc3)n3ccc(-c4cc(Cl)ccc4-n4cnnn4)cc3=O)nc2c1 [Example 3g, (S)-2-(1-(4-(5-chloro-2-(1H-tetrazol-1-yl)phenyl)-2-oxopyridin-1(2H)-yl)-2-phenylethyl)-1H-benzo[d]imidazole-5-carboxylic acid]
11 | < 5 | O=c1cc(-c2cc(Cl)ccc2-n2cnnn2)ccn1C(Cc1ccccc1)c1nc(-c2cccnc2)c[nH]1 (centres unmarked) [Example 4Aa, 4-(5-chloro-2-(1H-tetrazol-1-yl)phenyl)-1-(2-phenyl-1-(4-(pyridin-3-yl)-1H-imidazol-2-yl)ethyl)pyridin-2(1H)-one]
12 | 154 | O=c1cc(-c2cc(Cl)ccc2-n2cnnn2)ccn1C(Cc1ccc(F)cc1)c1nc(-c2ccc(F)cc2)c[nH]1 (centres unmarked) [Example 4Af, 4-(5-chloro-2-(1H-tetrazol-1-yl)phenyl)-1-(2-(4-fluorophenyl)-1-(4-(4-fluorophenyl)-1H-imidazol-2-yl)ethyl)pyridin-2(1H)-one]
13 | < 5 | N#Cc1ccc(-c2cnc([C@@H](Cc3ccc(F)cc3)n3ccc(-c4cc(Cl)ccc4-n4cnnn4)cc3=O)[nH]2)cc1 [Example 4Cl, (R)-4-(2-(1-(4-(5-chloro-2-(1H-tetrazol-1-yl)phenyl)-2-oxopyridin-1(2H)-yl)-2-(4-fluorophenyl)ethyl)-1H-imidazol-5-yl)benzonitrile]
14 | < 5 | O=c1cc(-c2cc(Cl)ccc2-n2cnnn2)ccn1[C@@H](Cc1ccc(F)cc1)c1nc2cc(P(=O)(O)O)ccc2[nH]1 [Example 5b, (S)-(2-(1-(4-(5-chloro-2-(1H-tetrazol-1-yl)phenyl)-2-oxopyridin-1(2H)-yl)-2-(4-fluorophenyl)ethyl)-1H-benzo[d]imidazol-5-yl)phosphonic acid]
